Measured values reported in US20240067679A1, “SARS-COV-2 PROTEIN-DERIVED PEPTIDE AND VACCINE CONTAINING SAME” (Onco Therapy Science, Inc., priority 2021, published 2024).

T1: SARS-CoV-2 ORF1ab peptide on HLA-A*02:01 (human)
T1 peptide: TLMIERFVSL

T2: SARS-CoV-2 ORF1ab peptide on HLA-A*02:01 (human)
T2 peptide: NVLAWLYAAV

B1: Peptide 10-responsive TCR (TCR)
alpha TRAV8-6 TRAJ36 CDR3: CAITGANNLFF
beta TRBV20-1 TRBJ1-5 CDR3: CSAEDRGSNSNQPQHF
B2: Peptide 12-responsive TCR-1 (TCR)
alpha TRAV1-2 TRAJ20 CDR3: CAVRDPRNDYKLSF
beta TRBV27 TRBJ1-1 CDR3: CATQVNTEAFF
B3: Peptide 12-responsive TCR-2 (TCR)
alpha TRAV24 TRAJ29 CDR3: CAFLSGNTPLVF
beta TRBV27 TRBJ1-6 CDR3: CASSPAAYSPLHF

Molecular target: T1, SARS-CoV-2 ORF1ab peptide on HLA-A*02:01
Assay: cytokine release
Conditions: not given

Molecule	binding result
B1	recognises

Molecular target: T2, SARS-CoV-2 ORF1ab peptide on HLA-A*02:01
Assay: cytokine release
Conditions: not given

Molecule	binding result
B2	recognises
B3	recognises

Test system: HLA-A*02:01-expressing target cells (T2 cells)
Assay: not given
Format: cell-based, human
Conditions: not given

Molecule	Peptide-specific IFN-γ production (ELISPOT)
FTYASALWEI [Peptide 7]	observed
FVLWAHGFEL [Peptide 3]	observed
LMYKGLPWNV [Peptide 2]	observed

Same assay, conditions: cells induced from HLA-A*02:01-positive PBMCs; peptide-pulsed T2 cells vs T2 cells not pulsed

Molecule	Peptide-specific IFN-γ production (ELISPOT)
FGMSRIGMEV (a peptide derived from N polyprotein of SARS-CoV-2) [Peptide 9, SARS-CoV-2 N protein-derived 10 mer peptide, position 315]	observed
FMIDVQQWGF (a peptide derived from ORF1ab polyprotein of SARS-CoV-2) [Peptide 15, SARS-CoV-2 ORF1ab-derived 10 mer peptide, position 6165]	observed
MMGFKMNYQV (a peptide derived from ORF1ab polyprotein of SARS-CoV-2) [Peptide 5, SARS-CoV-2 ORF1ab-derived 10 mer peptide, position 5982]	observed
MMILSDDAV (a peptide derived from ORF1ab polyprotein of SARS-CoV-2) [Peptide 8, SARS-CoV-2 ORF1ab-derived 9 mer peptide, position 5147]	not observed
NVLAWLYAAV (a peptide derived from ORF1ab polyprotein of SARS-CoV-2) [Peptide 12, SARS-CoV-2 ORF1ab-derived 10 mer peptide, position 3466]	observed
SLFDMSKFPL (a peptide derived from ORF1ab polyprotein of SARS-CoV-2) [Peptide 1, SARS-CoV-2 ORF1ab-derived 10 mer peptide, position 7041]	observed
TLEPEYENSV [Peptide 13, SARS-CoV-2 ORF1ab-derived 10 mer peptide, position 5740]	observed
TLMIERFVSL (a peptide derived from ORF1ab polyprotein of SARS-CoV-2) [Peptide 10, SARS-CoV-2 ORF1ab-derived 10 mer peptide, position 5245]	observed
YMPASWVMRI (a peptide derived from ORF1ab polyprotein of SARS-CoV-2) [Peptide 4, SARS-CoV-2 ORF1ab-derived 10 mer peptide, position 3654]	observed
YSFLPGVYSV (a peptide derived from ORF1ab polyprotein of SARS-CoV-2) [Peptide 14, SARS-CoV-2 ORF1ab-derived 10 mer peptide, position 3098]	observed
YVYNPFMIDV (a peptide derived from ORF1ab polyprotein of SARS-CoV-2) [Peptide 11, SARS-CoV-2 ORF1ab-derived 10 mer peptide, position 6160]	observed

Test system: HLA-A*02:01-expressing target cells (T2 cells)
Assay: not given
Format: cell-based, human
Conditions: not given
Remark: another data set of the same source

Molecule	IFN-γ production by CTL lines (ELISA)
FTYASALWEI [Peptide 7]	observed
FVLWAHGFEL [Peptide 3]	observed
LMYKGLPWNV [Peptide 2]	observed

Same assay, conditions: HLA-A*02:01-restricted CTL lines; peptide-pulsed T2 cells

Molecule	IFN-γ production by CTL lines (ELISA)
FMIDVQQWGF (a peptide derived from ORF1ab polyprotein of SARS-CoV-2) [Peptide 15, SARS-CoV-2 ORF1ab-derived 10 mer peptide, position 6165]	observed
NVLAWLYAAV (a peptide derived from ORF1ab polyprotein of SARS-CoV-2) [Peptide 12, SARS-CoV-2 ORF1ab-derived 10 mer peptide, position 3466]	observed
TLMIERFVSL (a peptide derived from ORF1ab polyprotein of SARS-CoV-2) [Peptide 10, SARS-CoV-2 ORF1ab-derived 10 mer peptide, position 5245]	observed
YMPASWVMRI (a peptide derived from ORF1ab polyprotein of SARS-CoV-2) [Peptide 4, SARS-CoV-2 ORF1ab-derived 10 mer peptide, position 3654]	observed
YVYNPFMIDV (a peptide derived from ORF1ab polyprotein of SARS-CoV-2) [Peptide 11, SARS-CoV-2 ORF1ab-derived 10 mer peptide, position 6160]	observed

Test system: HLA-A*24:02-expressing target cells (TISI cells)
Assay: not given
Format: cell-based, human
Conditions: not given

Molecule	Peptide-specific IFN-γ production (ELISPOT)
FTYASALWEI [Peptide 7]	no peptide-specific IFN-γ production was observed
FVLWAHGFEL [Peptide 3]	observed
LMYKGLPWNV [Peptide 2]	no peptide-specific IFN-γ production was observed

Same assay, conditions: cells induced from HLA-A*24:02-positive PBMCs; peptide-pulsed TISI cells vs TISI cells not pulsed

Molecule	Peptide-specific IFN-γ production (ELISPOT)
FGMSRIGMEV (a peptide derived from N polyprotein of SARS-CoV-2) [Peptide 9, SARS-CoV-2 N protein-derived 10 mer peptide, position 315]	no peptide-specific IFN-γ production was observed
FMIDVQQWGF (a peptide derived from ORF1ab polyprotein of SARS-CoV-2) [Peptide 15, SARS-CoV-2 ORF1ab-derived 10 mer peptide, position 6165]	no peptide-specific IFN-γ production was observed
MMGFKMNYQV (a peptide derived from ORF1ab polyprotein of SARS-CoV-2) [Peptide 5, SARS-CoV-2 ORF1ab-derived 10 mer peptide, position 5982]	no peptide-specific IFN-γ production was observed
NVLAWLYAAV (a peptide derived from ORF1ab polyprotein of SARS-CoV-2) [Peptide 12, SARS-CoV-2 ORF1ab-derived 10 mer peptide, position 3466]	no peptide-specific IFN-γ production was observed
SLFDMSKFPL (a peptide derived from ORF1ab polyprotein of SARS-CoV-2) [Peptide 1, SARS-CoV-2 ORF1ab-derived 10 mer peptide, position 7041]	no peptide-specific IFN-γ production was observed
TLEPEYENSV [Peptide 13, SARS-CoV-2 ORF1ab-derived 10 mer peptide, position 5740]	no peptide-specific IFN-γ production was observed
TLMIERFVSL (a peptide derived from ORF1ab polyprotein of SARS-CoV-2) [Peptide 10, SARS-CoV-2 ORF1ab-derived 10 mer peptide, position 5245]	no peptide-specific IFN-γ production was observed
YMPASWVMRI (a peptide derived from ORF1ab polyprotein of SARS-CoV-2) [Peptide 4, SARS-CoV-2 ORF1ab-derived 10 mer peptide, position 3654]	no peptide-specific IFN-γ production was observed
YSFLPGVYSV (a peptide derived from ORF1ab polyprotein of SARS-CoV-2) [Peptide 14, SARS-CoV-2 ORF1ab-derived 10 mer peptide, position 3098]	no peptide-specific IFN-γ production was observed
YVYNPFMIDV (a peptide derived from ORF1ab polyprotein of SARS-CoV-2) [Peptide 11, SARS-CoV-2 ORF1ab-derived 10 mer peptide, position 6160]	observed

Test system: HLA-A*24:02-expressing target cells (TISI cells)
Assay: not given
Format: cell-based, human
Conditions: not given
Remark: another data set of the same source

Molecule	IFN-γ production by CTL lines (ELISA)
FVLWAHGFEL [Peptide 3]	observed

Same assay, conditions: HLA-A*24:02-restricted CTL lines; peptide-pulsed TISI cells

Molecule	IFN-γ production by CTL lines (ELISA)
YVYNPFMIDV (a peptide derived from ORF1ab polyprotein of SARS-CoV-2) [Peptide 11, SARS-CoV-2 ORF1ab-derived 10 mer peptide, position 6160]	observed

Test system: HLA-A*02:06-expressing target cells (HEV0011 cells)
Assay: not given
Format: cell-based, human
Conditions: not given

Molecule	Peptide-specific IFN-γ production (ELISPOT)
FTYASALWEI [Peptide 7]	observed
FVLWAHGFEL [Peptide 3]	observed
LMYKGLPWNV [Peptide 2]	not observed

Same assay, conditions: cells induced from HLA-A*02:06-positive PBMCs; peptide-pulsed HEV0011 cells vs HEV0011 cells not pulsed

Molecule	Peptide-specific IFN-γ production (ELISPOT)
FMIDVQQWGF (a peptide derived from ORF1ab polyprotein of SARS-CoV-2) [Peptide 15, SARS-CoV-2 ORF1ab-derived 10 mer peptide, position 6165]	observed
NVLAWLYAAV (a peptide derived from ORF1ab polyprotein of SARS-CoV-2) [Peptide 12, SARS-CoV-2 ORF1ab-derived 10 mer peptide, position 3466]	observed
TLMIERFVSL (a peptide derived from ORF1ab polyprotein of SARS-CoV-2) [Peptide 10, SARS-CoV-2 ORF1ab-derived 10 mer peptide, position 5245]	observed
YMPASWVMRI (a peptide derived from ORF1ab polyprotein of SARS-CoV-2) [Peptide 4, SARS-CoV-2 ORF1ab-derived 10 mer peptide, position 3654]	observed
YVYNPFMIDV (a peptide derived from ORF1ab polyprotein of SARS-CoV-2) [Peptide 11, SARS-CoV-2 ORF1ab-derived 10 mer peptide, position 6160]	observed

Test system: HLA-A*02:06-expressing target cells (HEV0011 cells)
Assay: not given
Format: cell-based, human
Conditions: not given
Remark: another data set of the same source

Molecule	IFN-γ production by CTL lines (ELISA)
FTYASALWEI [Peptide 7]	observed
FVLWAHGFEL [Peptide 3]	observed

Same assay, conditions: HLA-A*02:06-restricted CTL lines; peptide-pulsed HEV0011 cells

Molecule	IFN-γ production by CTL lines (ELISA)
FMIDVQQWGF (a peptide derived from ORF1ab polyprotein of SARS-CoV-2) [Peptide 15, SARS-CoV-2 ORF1ab-derived 10 mer peptide, position 6165]	observed
NVLAWLYAAV (a peptide derived from ORF1ab polyprotein of SARS-CoV-2) [Peptide 12, SARS-CoV-2 ORF1ab-derived 10 mer peptide, position 3466]	observed
TLMIERFVSL (a peptide derived from ORF1ab polyprotein of SARS-CoV-2) [Peptide 10, SARS-CoV-2 ORF1ab-derived 10 mer peptide, position 5245]	observed
YMPASWVMRI (a peptide derived from ORF1ab polyprotein of SARS-CoV-2) [Peptide 4, SARS-CoV-2 ORF1ab-derived 10 mer peptide, position 3654]	observed
YVYNPFMIDV (a peptide derived from ORF1ab polyprotein of SARS-CoV-2) [Peptide 11, SARS-CoV-2 ORF1ab-derived 10 mer peptide, position 6160]	observed

Test system: CD8-positive T cells
Assay: not given
Conditions: not given

Molecule	Detection of tetramer-positive CD8-positive T cells recognizing the peptide
FVLWAHGFEL [Peptide 3]	detected
